Test system: Spodoptera litura
Test: Test for embryos of Spodoptera litura (sweet potato leaf dip)
Assay type: in vivo
Settings: effective ingredient concentration 20 ppm; 3 instar, sweet potato leaves immersed; dead counted after 7 days, 25° C.
Protocol: Preparation of Sample Drug Solution
1 Part by weight of the active compound was mixed with the above-mentioned amount of a solvent containing the above-mentioned amount of emulsifier in order to prepare the formulation of an appropriate active compound, and the mixture was diluted with water to a predetermined concentration.
The leaves of sweet potato were immersed in a sample drug solution which was diluted with water to a predetermined concentration and charged in a petri dish with a diameter of 9 cm after drying the drug solution. 10 of embryos with 3 instar of Spodoptera litura were dropped thereto, the petri dish was placed in a constant temperature chamber at 25° C., the leaves of sweet potato were additionally added after 2 days and 4 days and the number of dead embryos was examined after 7 days to calculate an insecticidal rate.
In the present test, the result of 2 petri dishes per one partition was averaged.

| Structure (SMILES) | insecticidal rate |
| --- | --- |
| Cc1cc(C(F)(C(F)(F)F)C(F)(F)F)cc(C)c1NC(=O)c1csc(NC(=O)c2ccccc2Cl)n1 [compound 34, 2-(2-chlorobenzoyl)amino-N-(2,6-dimethyl-4 heptafluoroisopropylphenyl)-1,3-thiazole-4-carboxamide] | 100% |
| Cc1cc(C(F)(C(F)(F)F)C(F)(F)F)cc(C)c1NC(=O)c1csc(NC(=O)c2cccc(Cl)c2)n1 [compound 67, 2-(3-chlorobenzoyl)amino-N-(2,6-dimethyl-4-heptafluoro-isopropylphenyl)-1,3-thiazole-4-carboxamide] | 100% |

Source: patent US7799738B2, “Insecticidal 2-acylaminothiazole-4-carboxamides” (Bayer CropScience AG, priority 2005, dated 2010)
